Experimental findings from ChEMBL document CHEMBL1144726, “"Virtual fragment linking": an approach to identify potent binders from low affinity fragment hits” (J Med Chem, 2008) are described below.

Structures are written as SMILES.

For one assay, the target named is Estrogen receptor beta (Homo sapiens, UniProt Q92731).
Estrogen receptor beta, sequence (Q92731 whole entry): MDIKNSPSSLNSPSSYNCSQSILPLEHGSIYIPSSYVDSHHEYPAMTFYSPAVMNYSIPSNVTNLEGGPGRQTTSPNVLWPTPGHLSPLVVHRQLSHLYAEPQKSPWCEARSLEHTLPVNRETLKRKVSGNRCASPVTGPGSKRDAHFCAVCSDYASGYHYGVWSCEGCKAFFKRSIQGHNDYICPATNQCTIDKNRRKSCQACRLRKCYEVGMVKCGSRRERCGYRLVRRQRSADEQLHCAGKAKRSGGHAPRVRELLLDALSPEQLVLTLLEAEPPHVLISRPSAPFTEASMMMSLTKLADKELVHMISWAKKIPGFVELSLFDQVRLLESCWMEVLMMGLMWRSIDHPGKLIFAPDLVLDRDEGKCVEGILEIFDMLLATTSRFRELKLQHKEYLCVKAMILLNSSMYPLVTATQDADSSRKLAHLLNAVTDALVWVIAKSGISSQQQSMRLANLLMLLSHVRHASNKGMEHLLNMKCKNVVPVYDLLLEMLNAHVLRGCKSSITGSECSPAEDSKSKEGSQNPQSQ
As for `Oc1ccc2nn(-c3ccccc3)cc2c1`, the IC50 was determined as 10 µM. The same measure, in the same setting: the result for `Cc1cc(-c2cccc(Cl)c2)ccc1O` reads 2.1 µM.

As to `COc1ccc(-c2ccc(O)cc2)cc1`, 2.4 µM corresponded to half-maximal inhibition (IC50). As for `N#Cc1ccccc1-c1ccc(O)cc1`, the IC50 amounted to 1.8 µM. This IC50 and that of the compound before are within 1.5-fold of each other. The same measure, in the same setting: the result for `Nc1ccc(-c2ccc(O)cc2)cc1Cl` reads 2.9 µM; that for `Cc1cc(O)ccc1-c1ccccc1`, 4 µM; that for `Oc1ccc(-c2cccc(F)c2)cc1`, 1.2 µM. `Oc1ccc(-n2nc3ccccc3c2Cl)cc1` gave an IC50 of 1.1 µM. With `Oc1ccc(-c2ccccc2)cc1Cl`, the half-maximal inhibitory concentration (IC50) was determined as 3.1 µM.

The target of the next assay is Nitric oxide synthase, inducible (Homo sapiens, UniProt P35228).
Nitric oxide synthase, inducible, sequence (P35228 whole entry): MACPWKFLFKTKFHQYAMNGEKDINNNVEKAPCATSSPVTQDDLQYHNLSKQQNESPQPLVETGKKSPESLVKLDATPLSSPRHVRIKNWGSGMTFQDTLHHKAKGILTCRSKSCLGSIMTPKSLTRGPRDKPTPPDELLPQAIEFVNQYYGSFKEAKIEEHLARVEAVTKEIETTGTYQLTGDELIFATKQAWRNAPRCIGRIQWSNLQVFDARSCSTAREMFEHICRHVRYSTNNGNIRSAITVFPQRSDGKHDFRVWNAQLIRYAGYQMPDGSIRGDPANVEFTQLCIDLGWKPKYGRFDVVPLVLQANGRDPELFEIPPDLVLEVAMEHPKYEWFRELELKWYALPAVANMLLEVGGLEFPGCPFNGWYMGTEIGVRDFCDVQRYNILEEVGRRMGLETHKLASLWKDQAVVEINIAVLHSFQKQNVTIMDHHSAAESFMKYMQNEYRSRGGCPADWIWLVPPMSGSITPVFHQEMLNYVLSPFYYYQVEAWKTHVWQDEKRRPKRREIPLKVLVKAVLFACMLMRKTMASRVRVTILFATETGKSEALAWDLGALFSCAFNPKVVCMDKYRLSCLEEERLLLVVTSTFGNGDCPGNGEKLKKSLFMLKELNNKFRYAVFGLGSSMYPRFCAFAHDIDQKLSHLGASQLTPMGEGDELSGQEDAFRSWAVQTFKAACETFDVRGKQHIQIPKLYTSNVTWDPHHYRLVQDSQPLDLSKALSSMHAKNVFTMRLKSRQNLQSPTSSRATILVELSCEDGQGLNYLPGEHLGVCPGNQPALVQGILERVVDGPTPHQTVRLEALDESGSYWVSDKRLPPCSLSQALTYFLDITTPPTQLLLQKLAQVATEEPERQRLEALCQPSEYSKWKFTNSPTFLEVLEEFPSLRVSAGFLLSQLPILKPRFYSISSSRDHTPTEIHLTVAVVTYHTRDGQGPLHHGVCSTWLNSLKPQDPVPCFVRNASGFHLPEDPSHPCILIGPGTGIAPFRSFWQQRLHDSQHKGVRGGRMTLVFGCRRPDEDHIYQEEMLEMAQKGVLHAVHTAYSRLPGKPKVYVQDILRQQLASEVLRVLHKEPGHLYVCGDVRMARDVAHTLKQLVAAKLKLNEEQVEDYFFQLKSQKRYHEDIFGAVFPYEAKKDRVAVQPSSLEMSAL
`Cc1cccc2c1C(N)=NC(C1CCC1)N2` (stereo not given) registered an IC50 of 1.2 µM.

For orientation: IC50 means the concentration that gives 50% inhibition. A higher IC50 goes with weaker potency.
